Laboratory results: US7638508B2, “Glucocorticosteroid compound having anti-inflammatory activity” (Glaxo Group Limited, priority 2003, dated 2009)

What follows are compounds tested against T1, glucocorticoid receptor (Homo sapiens, UniProt P04150) (assay: MMTV-LTR renilla luciferase reporter assay in A549 cells (direct transactivation of gene expression)). Conditions: 6 hour at 37° C., read-out: maximal response relative to Dexamethasone (100%).
T1 sequence (P04150 1-777): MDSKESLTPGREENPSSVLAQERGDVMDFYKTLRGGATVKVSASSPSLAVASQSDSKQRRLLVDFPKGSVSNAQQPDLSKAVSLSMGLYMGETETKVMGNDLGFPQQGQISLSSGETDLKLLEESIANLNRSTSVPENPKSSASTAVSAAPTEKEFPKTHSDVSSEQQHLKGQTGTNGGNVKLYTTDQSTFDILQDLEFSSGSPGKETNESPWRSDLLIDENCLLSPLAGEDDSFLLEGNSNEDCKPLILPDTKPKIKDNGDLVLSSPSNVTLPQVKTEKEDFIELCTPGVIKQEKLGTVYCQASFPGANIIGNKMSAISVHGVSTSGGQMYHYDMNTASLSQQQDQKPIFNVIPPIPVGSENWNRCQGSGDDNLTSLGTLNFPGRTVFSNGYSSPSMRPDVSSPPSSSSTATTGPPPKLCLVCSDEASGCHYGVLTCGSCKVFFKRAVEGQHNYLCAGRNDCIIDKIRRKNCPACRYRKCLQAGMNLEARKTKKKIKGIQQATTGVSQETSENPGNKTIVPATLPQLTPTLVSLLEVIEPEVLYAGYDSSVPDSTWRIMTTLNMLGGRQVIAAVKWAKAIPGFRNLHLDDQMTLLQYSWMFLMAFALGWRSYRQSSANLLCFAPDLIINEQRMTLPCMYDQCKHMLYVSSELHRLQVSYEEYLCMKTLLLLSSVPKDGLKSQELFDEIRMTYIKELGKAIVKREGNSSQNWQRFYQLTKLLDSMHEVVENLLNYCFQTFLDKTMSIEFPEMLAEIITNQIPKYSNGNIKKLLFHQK
Type: cell-based
Experimental: Pharmacological activity may be assessed in functional in vitro assays of glucocorticoid agonist activity.
The functional assay based on that described by R. J. H. Austin et al., Eur Resp J. (2002), 20, 1386-1392 measures the ability of compounds to directly transactivate gene expression. A549 cells stably transfected with a reporter gene containing the glucocorticoid responsive region of the mouse mammary tumour virus long terminal repeat (MMTV-LTR) coupled to renilla luciferase were treated with test compounds at appropriate doses for 6 hour at 37° C. The amount of luciferase activity present within the cells is then determined by measuring the light emitted following incubation with a suitable substrate.
`CC1CC2C3CC(F)C4=CC(=O)C=CC4(C)C3(F)C(O)CC2(C)C1(OC(=O)C1C(C)(C)C1(C)C)C(=O)SCC#N` (stereo not drawn) [Example 1, 6α,9α-Difluoro-11β-hydroxy-16α-methyl-3-oxo-17α-(2,2,3,3-tetramethycyclopropylcarbonyl)oxy-androsta-1,4-diene-17β-carbothioic Acid S-cyanomethyl Ester] was tested, and the Emax was less than 35%. `COc1c(C(=O)OC2(C(=O)SCC#N)C(C)CC3C4CC(F)C5=CC(=O)C=CC5(C)C4(F)C(O)CC32C)csc1Cl` (stereo not drawn) [Example 3, 17α-(5-Chloro-4-methoxy-thiophene-3-carbonyl)oxy-6α,9α-difluoro-11β-hydroxy-16α-methyl-3-oxo-androsta-1,4-diene-17β-carbothioic Acid S-cyanomethyl Ester] gave an Emax of less than 35%. Work on `C[C@@H]1C[C@H]2[C@@H]3C[C@H](F)C4=CC(=O)C=C[C@]4(C)[C@@]3(F)[C@@H](O)C[C@]2(C)[C@@]1(OC(=O)C1CCCCC1)C(=O)OCC#N` [Example 5, 17α-(Cyclohexylcarbonyl)oxy-6α,9α-difluoro-11β-hydroxy-16α-methyl-3-oxo-androsta-1,4-diene-17β-carboxylic Acid cyanomethyl Ester] yielded an Emax of less than 35%. `CC1CC2C3CC(F)C4=CC(=O)C=CC4(C)C3(F)C(O)CC2(C)C1(OC(=O)c1c(F)cccc1F)C(=O)OCC#N` (stereo not drawn) [Example 6, 6α,9α-Difluoro-17α-(2,6-difluorobenzoyl)oxy-11β-hydroxy-16α-methyl-3-oxo-androsta-1,4-diene-17β-carboxylic Acid cyanomethyl Ester] showed an Emax of less than 35%. In the case of `COc1ccc(C(=O)OC2(C(=O)OCC#N)C(C)CC3C4CC(F)C5=CC(=O)C=CC5(C)C4(F)C(O)CC32C)cc1` (stereo not drawn) [Example 7, 6α,9α-Difluoro-11β-hydroxy-17α-(4-methoxybenzoyl)oxy-16α-methyl-3-oxo-androsta-1,4-diene-17β-carboxylic Acid cyanomethyl Ester], the Emax is reported as less than 35%. Work on `CC1CC2C3CC(F)C4=CC(=O)C=CC4(C)C3(F)C(O)CC2(C)C1(OC(=O)CC1CCCC1)C(=O)OCC#N` (stereo not drawn) [Example 9, 17α-(Cyclopentylmethylcarbonyl)oxy-6α,9α-difluoro-11β-hydroxy-16α-methyl-3-oxo-androsta-1,4-diene-17β-carboxylic Acid Cyanomethyl Ester] yielded an Emax of less than 35%. With `CC1CC2C3CC(F)C4=CC(=O)C=CC4(C)C3(F)C(O)CC2(C)C1(OC(=O)CC(C)(C)C)C(=O)OCC#N` (stereo not drawn) [Example 10, 6α,9α-Difluoro-17α-(3,3-dimethylbutanoyl)oxy-11β-hydroxy-16α-methyl-3-oxo-androsta-1,4-diene-17β-carboxylic Acid Cyanomethyl Ester] the Emax was less than 35%. Work on `CC(C)c1nc(C(=O)O[C@]2(C(=O)OCC#N)[C@H](C)C[C@H]3[C@@H]4C[C@H](F)C5=CC(=O)C=C[C@]5(C)[C@@]4(F)[C@@H](O)C[C@@]32C)cs1` [Example 11, 6α,9α-Difluoro-11β-hydroxy-17α-(2-isopropyl-1,3-thiazole-4-carbonyl)oxy-16α-methyl-3-oxo-androsta-1,4-diene-17β-carboxylic Acid Cyanomethyl Ester] yielded an Emax of less than 35%. Work on `CC1CC2C3CC(F)C4=CC(=O)C=CC4(C)C3(F)C(O)CC2(C)C1(OC(=O)c1ccc2ccccc2n1)C(=O)OCC#N` (stereo not drawn) [Example 12, 6α,9α-Difluoro-11β-hydroxy-16α-methyl-3-oxo-17α-(quinoline-2-carbonyl)oxy-androsta-1,4-diene-17β-carboxylic Acid Cyanomethyl Ester] yielded an Emax of less than 35%. `CC1CC2C3CC(F)C4=CC(=O)C=CC4(C)C3(F)C(O)CC2(C)C1(OC(=O)c1ccc(C(F)(F)F)o1)C(=O)OCC#N` (stereo not drawn) [Example 13, 6α,9α-Difluoro-11β-hydroxy-16α-methyl-3-oxo-17α-(5-trifluoromethyl-furan-2-carbonyl)oxy-androsta-1,4-diene-17β-carboxylic Acid Cyanomethyl Ester] was tested, and the Emax was less than 35%. With `CC1CC2C3CC(F)C4=CC(=O)C=CC4(C)C3(F)C(O)CC2(C)C1(OC(=O)c1ccc(S(C)(=O)=O)s1)C(=O)OCC#N` (stereo not drawn) [Example 14, 6α,9α-Difluoro-11β-hydroxy-16α-methyl-17α-(5-methylsulphonyl-thiophene-2-carbonyl)oxy-3-oxo-androsta-1,4-diene-17β-carboxylic Acid Cyanomethyl Ester] the Emax was less than 35%. With `CCc1cc(C(=O)OC2(C(=O)OCC#N)C(C)CC3C4CC(F)C5=CC(=O)C=CC5(C)C4(F)C(O)CC32C)no1` (stereo not drawn) [Example 16, 6α,9α-Difluoro-17α-(5-ethyl-isoxazole-3-carbonyl)oxy-11β-hydroxy-16α-methyl-3-oxo-androsta-1,4-diene-17β-carboxylic Acid Cyanomethyl Ester] the Emax was less than 35%. `CC1CC2C3CCC4=CC(=O)C=CC4(C)C3(F)C(O)CC2(C)C1(OC(=O)C1C(C)(C)C1(C)C)C(=O)OCC#N` (stereo not drawn) [Example 17, 9α-Fluoro-11β-hydroxy-16β-methyl-3-oxo-17α-(2,2,3,3-tetramethylcyclopropylcarbonyl)oxy-androsta-1,4-diene-17 b-carboxylic Acid cyanomethyl ester] showed an Emax of less than 35%. With `COc1c(C(=O)OC2(C(=O)OCC#N)C(C)CC3C4CC(F)C5=CC(=O)C=CC5(C)C4(F)C(O)CC32C)csc1Cl` (stereo not drawn) [Example 19, 17α-(5-Chloro-4-methoxy-thiophene-3-carbonyl)oxy-6α,9α-difluoro-11β-hydroxy-16α-methyl-3-oxo-androsta-1,4-diene-17β-carboxylic Acid Cyanomethyl Ester] the Emax was less than 35%. For `CC1CC2C3CC(F)C4=CC(=O)C=CC4(C)C3(F)C(O)CC2(C)C1(OC(=O)C1C(C)(C)C1(Cl)Cl)C(=O)SCC#N` (stereo not drawn) [Example 21, 17α-(22-Dichloro-3,3-dimethylclopropylcarbonyl)oxy-6α,9α-difluoro-11β-hydroxy-16α-methyl-3-oxo-androsta-1,4-diene-17β-carbothioic acid S-cyanomethyl Ester], the Emax was less than 35%. `CC1CC2C3CC(F)C4=CC(=O)C=CC4(C)C3(F)C(O)CC2(C)C1(OC(=O)C1CCCCC1)C(=O)SCC#N` (stereo not drawn) [Example 22, 17α-(Cyclohexylcarbonyl)oxy-6α,9α-difluoro-1,1-hydroxy-16α-methyl-3-oxo-androsta-1,4-diene-17β-carbothioic Acid S-cyanomethyl Ester] was tested, and the Emax was less than 35%.

These compounds were tested against T2, Progesterone Receptor (Homo sapiens, UniProt P06401) (assay: Assay for Progesterone Receptor Activity: alkaline phosphatase upregulation in T47D cells). Conditions: 24 hours at 37° C.
T2 construct: The human breast cancer cell line T47D has been reported to upregulate an endogenous alkaline phosphatase in response to progestins; endogenous in cells; host or cells: T47D cells
T2 sequence (P06401 1-933): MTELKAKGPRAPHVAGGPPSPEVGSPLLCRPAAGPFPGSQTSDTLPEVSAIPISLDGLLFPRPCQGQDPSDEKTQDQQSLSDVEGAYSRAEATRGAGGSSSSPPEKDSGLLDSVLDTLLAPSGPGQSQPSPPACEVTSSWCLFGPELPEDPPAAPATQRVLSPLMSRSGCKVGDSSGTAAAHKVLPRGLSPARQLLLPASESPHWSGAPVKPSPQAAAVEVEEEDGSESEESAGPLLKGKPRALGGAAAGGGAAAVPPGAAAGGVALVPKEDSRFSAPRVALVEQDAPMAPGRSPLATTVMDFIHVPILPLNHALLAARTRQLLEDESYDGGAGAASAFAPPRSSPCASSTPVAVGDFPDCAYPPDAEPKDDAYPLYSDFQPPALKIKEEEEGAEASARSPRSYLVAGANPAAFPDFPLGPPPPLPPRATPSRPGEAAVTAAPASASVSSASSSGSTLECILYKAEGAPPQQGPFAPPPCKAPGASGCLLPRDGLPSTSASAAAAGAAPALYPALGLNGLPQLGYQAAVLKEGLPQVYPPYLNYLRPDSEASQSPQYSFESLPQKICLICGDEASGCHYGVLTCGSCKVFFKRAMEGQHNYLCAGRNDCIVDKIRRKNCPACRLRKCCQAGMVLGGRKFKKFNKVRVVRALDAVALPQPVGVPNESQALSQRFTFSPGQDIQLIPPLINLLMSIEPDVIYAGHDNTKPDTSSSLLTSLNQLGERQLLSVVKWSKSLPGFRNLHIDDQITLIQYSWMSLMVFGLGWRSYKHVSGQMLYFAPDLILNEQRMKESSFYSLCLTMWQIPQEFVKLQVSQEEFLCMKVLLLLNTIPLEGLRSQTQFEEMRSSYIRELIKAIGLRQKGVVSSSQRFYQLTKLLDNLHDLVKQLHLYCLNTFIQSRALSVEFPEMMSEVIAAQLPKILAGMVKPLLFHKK
Type: cell-based
Experimental: Assay for Progesterone Receptor Activity
The human breast cancer cell line T47D has been reported to upregulate an endogenous alkaline phosphatase in response to progestins (Di Lorenzo et al., Cancer Research (1991) 51, 4470-4475. T47D cells were seeded into 96 well plates at a density of 1×10^5 cells per well and grown overnight at 37° C. Steroids were dissolved in DMSO, added to the cells (final DMSO concentration 0.7%), and incubated for 24 hours at 37° C. The cells were then washed with PBS and lysed with RIPA buffer (1% IGEPAL, 0.5% Na deoxycholate, 0.1% SDS in phosphate buffered saline). Alkaline phosphatase activity was measured spectrophotometrically (405 nm) using p-nitrophenylphosphate (1.5 mg/ml) as a substrate dissolved in 1 M diethanolamine, 0.28M NaCl, 0.5 mM MgCl2. Dose response curves were constructed from which EC50 values were estimated.
With `C[C@@H]1C[C@H]2[C@@H]3C[C@H](F)C4=CC(=O)C=C[C@]4(C)[C@@]3(F)[C@@H](O)C[C@]2(C)[C@@]1(OC(=O)C1CCCCC1)C(=O)OCC#N` [Example 5, 17α-(Cyclohexylcarbonyl)oxy-6α,9α-difluoro-11β-hydroxy-16α-methyl-3-oxo-androsta-1,4-diene-17β-carboxylic Acid cyanomethyl Ester] the EC50 was greater than 0.1 µM. With `CC(C)c1nc(C(=O)O[C@]2(C(=O)OCC#N)[C@H](C)C[C@H]3[C@@H]4C[C@H](F)C5=CC(=O)C=C[C@]5(C)[C@@]4(F)[C@@H](O)C[C@@]32C)cs1` [Example 11, 6α,9α-Difluoro-11β-hydroxy-17α-(2-isopropyl-1,3-thiazole-4-carbonyl)oxy-16α-methyl-3-oxo-androsta-1,4-diene-17β-carboxylic Acid Cyanomethyl Ester] the EC50 was greater than 0.1 µM.
